Measurements taken from the supplement of paper PMC11061612.

Legend:
Test in all cases: combination Emax (second highest fraction inhibited in the dose matrix, 72 h); higher = more inhibition; extreme values may be limits of the assay
[1] = system: KARPAS-620 (Plasma Cell Myeloma)
How it was run: (§1)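 Cell lines grown in DMEM/F12 or RPMI with 10% FBS were plated in 1536-well plates and held 24 hours at 37°C, 5% CO2 before 72 hours of exposure to two-drug dose matrices, with DMSO typically at 0.2%. CellTiter-Glo 2.0 luminescence gave viability, which was converted to inhibition. Vehicle wells were set to 0 and blank wells to 1. Combination Emax is the second-highest inhibition in the matrix, and Bliss excess is the observed combination effect minus the expected EA + EB − EA·EB, where EA and EB are the single-agent effects.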

CAL-78 (Chondrosarcoma) = system: CAL-78 (Chondrosarcoma)
How it was run: as §1

SK-N-FI (Neuroblastoma) = system: SK-N-FI (Neuroblastoma)
How it was run: as §1

[2] = system: SW1990 (Pancreatic Carcinoma)
How it was run: as §1

[3] = system: DOV13 (Ovarian Carcinoma)
How it was run: as §1

IGR-1 (Melanoma) = system: IGR-1 (Melanoma)
How it was run: as §1

[4] = system: SNU-C5 (Colorectal Carcinoma)
How it was run: as §1

[5] = system: KARPAS-1106P (B-Cell Non-Hodgkin's Lymphoma)
How it was run: as §1

[6] = system: IHH-4 (Thyroid Gland Carcinoma)
How it was run: as §1

[7] = system: HPAC (Pancreatic Carcinoma)
How it was run: as §1

[8] = system: HCC2157 (Breast Carcinoma)
How it was run: as §1

[9] = system: KM-H2 (Hodgkin's Lymphoma)
How it was run: as §1

[10] = system: CFPAC-1 (Pancreatic Carcinoma)
How it was run: as §1

[11] = system: MDA-MB-231 (Breast Carcinoma)
How it was run: as §1

[12] = system: NCI-H1299 (Non-Small Cell Lung Carcinoma)
How it was run: as §1

SN12C (Kidney Carcinoma) = system: SN12C (Kidney Carcinoma)
How it was run: as §1

DSH1 (Bladder Carcinoma) = system: DSH1 (Bladder Carcinoma)
How it was run: as §1

[13] = system: SW756 (Cervical Carcinoma)
How it was run: as §1

[14] = system: MDA-MB-157 (Breast Carcinoma)
How it was run: as §1

[15] = system: SW780 (Bladder Carcinoma)
How it was run: as §1

| Structure (SMILES) | combination Emax [9] | combination Emax [1] | combination Emax (CAL-78 (Chondrosarcoma)) | combination Emax (SK-N-FI (Neuroblastoma)) | combination Emax [2] | combination Emax [3] | combination Emax (IGR-1 (Melanoma)) | combination Emax [4] | combination Emax [5] | combination Emax [6] | combination Emax [7] | combination Emax [8] | combination Emax [10] | combination Emax [11] | combination Emax [12] | combination Emax (SN12C (Kidney Carcinoma)) | combination Emax (DSH1 (Bladder Carcinoma)) | combination Emax [13] | combination Emax [14] | combination Emax [15] |
| --- | --- | --- | --- | --- | --- | --- | --- | --- | --- | --- | --- | --- | --- | --- | --- | --- | --- | --- | --- | --- |
| CN(C)CCCOc1ccc(-c2ccc3ncc4c(c3c2)n(C2CCOCC2)c(=O)n4C)cn1 [AZD0156] + O=C(c1cc(Cc2n[nH]c(=O)c3ccccc23)ccc1F)N1CCN(C(=O)C2CC2)CC1 [Olaparib] (first compound max 3 µM, partner max 3 µM) | 0.401 | 0.612 | 0.272 | 0.148 | 0.16 | 0.608 | 0.209 | 0.325 | 0.551 | 0.516 | 0.36 | 0.38 | 0.434 | 0.405 | 0.335 | 0.102 | 0.387 | 0.155 | 0.27 | 0.183 |
| C=CCn1c(=O)c2cnc(Nc3ccc(N4CCN(C)CC4)cc3)nc2n1-c1cccc(C(C)(C)O)n1 [AZD1775] + O=C(c1cc(Cc2n[nH]c(=O)c3ccccc23)ccc1F)N1CCN(C(=O)C2CC2)CC1 [Olaparib] (first compound max 1 µM, partner max 10 µM) | 0.961 | 0.489 | 0.446 | 0.715 | 0.404 | 0.802 | 0.296 | 0.567 | 0.872 | 0.695 | 0.649 | 0.892 | 0.476 | 0.582 | 0.792 | 0.335 | 0.369 | 0.35 | 0.723 | 0.209 |
| CCN(CCO)CCCOc1ccc2c(Nc3cc(CC(=O)Nc4cccc(F)c4)[nH]n3)ncnc2c1 [AZD2811] + O=C(c1cc(Cc2n[nH]c(=O)c3ccccc23)ccc1F)N1CCN(C(=O)C2CC2)CC1 [Olaparib] (first compound max 1 µM, 7x7, partner max 10 µM) | 0.384 | 0.4 | 0.416 | 0.171 | 0.168 | 0.483 | 0.168 | 0.161 | 0.535 | 0.459 | 0.21 | 0.539 | 0.215 | 0.275 | 0.303 | 0.273 | 0.328 | 0.0979 | 0.251 | 0.242 |
| CN(CCO)CC[C@H](CSc1ccccc1)Nc1ccc(S(=O)(=O)NC(=O)c2ccc(N3CCC([C@@H](O)c4ccccc4-c4ccc(Cl)cc4)CC3)cc2)cc1S(=O)(=O)C(F)(F)F [AZD4320] + C1CN(CCC1(C(=O)N[C@@H](CCO)C2=CC=C(C=C2)Cl)N)C3=NC=NC4=C3C=CN4 [Capivasertib] (first compound max 1 µM, 7x7, partner max 3 µM) | 0.0543 | 1 | 0.524 | 0.228 | 0.0829 | 0.812 | 0.256 | 0.3 | 0.16 | 0.171 | 0.137 | 0.991 | 0.0708 | 0.376 | 0.129 | 0.0749 | 0.686 | 0.143 | 0.0801 | 0.578 |
| CN(CCO)CC[C@H](CSc1ccccc1)Nc1ccc(S(=O)(=O)NC(=O)c2ccc(N3CCC([C@@H](O)c4ccccc4-c4ccc(Cl)cc4)CC3)cc2)cc1S(=O)(=O)C(F)(F)F [AZD4320] + C=CCn1c(=O)c2cnc(Nc3ccc(N4CCN(C)CC4)cc3)nc2n1-c1cccc(C(C)(C)O)n1 [AZD1775] (first compound max 1 µM, partner max 1 µM) | 0.979 | 1 | 0.846 | 0.629 | 0.757 | 0.999 | 0.934 | 0.619 | 0.963 | 0.694 | 1 | 0.969 | 0.699 | 0.716 | 0.88 | 0.322 | 0.799 | 0.399 | 0.67 | 0.457 |
| CN(CCO)CC[C@H](CSc1ccccc1)Nc1ccc(S(=O)(=O)NC(=O)c2ccc(N3CCC([C@@H](O)c4ccccc4-c4ccc(Cl)cc4)CC3)cc2)cc1S(=O)(=O)C(F)(F)F [AZD4320] + CCN(CCO)CCCOc1ccc2c(Nc3cc(CC(=O)Nc4cccc(F)c4)[nH]n3)ncnc2c1 [AZD2811] (first compound max 1 µM, 7x7, partner max 1 µM) | 0.196 | 1 | 0.703 | 0.206 | 0.183 | 0.908 | 0.926 | 0.196 | 0.215 | 0.282 | 0.844 | 0.979 | 0.115 | 0.813 | 0.228 | 0.169 | 0.819 | 0.157 | 0.257 | 0.803 |
| CN(CCO)CC[C@H](CSc1ccccc1)Nc1ccc(S(=O)(=O)NC(=O)c2ccc(N3CCC([C@@H](O)c4ccccc4-c4ccc(Cl)cc4)CC3)cc2)cc1S(=O)(=O)C(F)(F)F [AZD4320] + Cc1cc2ncnn2cc1Nc1ncc2c(n1)n(C1CCOCC1)c(=O)n2C [AZD7648] (first compound max 1 µM, 7x7, partner max 10 µM) | 0.0312 | 1 | 0.46 | 0.201 | 0.0867 | 0.779 | 0.33 | 0.225 | 0.313 | 0.193 | 0.321 | 0.959 | 0.134 | 0.637 | 0.268 | 0.145 | 0.586 | 0.112 | 0.0975 | 0.484 |
| CN(CCO)CC[C@H](CSc1ccccc1)Nc1ccc(S(=O)(=O)NC(=O)c2ccc(N3CCC([C@@H](O)c4ccccc4-c4ccc(Cl)cc4)CC3)cc2)cc1S(=O)(=O)C(F)(F)F [AZD4320] + Cn1cnc2c(F)c(Nc3ccc(Br)cc3Cl)c(C(=O)NOCCO)cc21 [Selumetinib] (first compound max 1 µM, 7x7, partner max 3 µM) | 0.296 | 1 | 0.557 | 0.554 | 0.557 | 0.747 | 0.986 | 0.656 | 0.769 | 0.58 | 0.865 | 0.923 | 0.472 | 0.832 | 0.3 | 0.337 | 0.565 | 0.47 | 0.366 | 0.78 |

Continued, in another order:

| combination Emax [9] | Structure (SMILES) | combination Emax [1] | combination Emax (CAL-78 (Chondrosarcoma)) | combination Emax (SK-N-FI (Neuroblastoma)) | combination Emax [2] | combination Emax [3] | combination Emax (IGR-1 (Melanoma)) | combination Emax [4] | combination Emax [5] | combination Emax [6] | combination Emax [7] | combination Emax [8] | combination Emax [10] | combination Emax [11] | combination Emax [12] | combination Emax (SN12C (Kidney Carcinoma)) | combination Emax (DSH1 (Bladder Carcinoma)) | combination Emax [13] | combination Emax [14] | combination Emax [15] |
| --- | --- | --- | --- | --- | --- | --- | --- | --- | --- | --- | --- | --- | --- | --- | --- | --- | --- | --- | --- | --- |
| 0.821 | CN(C)CCCOc1ccc(-c2ccc3ncc4c(c3c2)n(C2CCOCC2)c(=O)n4C)cn1 [AZD0156] + C[C@@H]1COCCN1C2=NC(=NC(=C2)C3(CC3)[S@](=N)(=O)C)C4=C5C=CNC5=NC=C4 [AZD6738] (first compound max 1 µM, 7x7, partner max 10 µM) | 0.644 | 0.41 | 0.793 | 0.552 | 0.888 | 0.523 | 0.807 | 0.752 | 0.907 | 0.761 | 0.955 | 0.434 | 0.736 | 0.746 | 0.114 | 0.823 | 0.322 | 0.914 | 0.138 |
| 0.961 | C=CCn1c(=O)c2cnc(Nc3ccc(N4CCN(C)CC4)cc3)nc2n1-c1cccc(C(C)(C)O)n1 [AZD1775] + C[C@@H]1COCCN1C2=NC(=NC(=C2)C3(CC3)[S@](=N)(=O)C)C4=C5C=CNC5=NC=C4 [AZD6738] (first compound max 1 µM, partner max 10 µM) | 0.753 | 0.839 | 0.857 | 0.623 | 0.928 | 0.538 | 0.794 | 0.886 | 0.886 | 0.705 | 0.983 | 0.536 | 0.84 | 0.889 | 0.408 | 0.862 | 0.425 | 0.947 | 0.246 |
| 0.938 | CCN(CCO)CCCOc1ccc2c(Nc3cc(CC(=O)Nc4cccc(F)c4)[nH]n3)ncnc2c1 [AZD2811] + C=CCn1c(=O)c2cnc(Nc3ccc(N4CCN(C)CC4)cc3)nc2n1-c1cccc(C(C)(C)O)n1 [AZD1775] (first compound max 1 µM, partner max 1 µM) | 0.327 | 0.51 | 0.666 | 0.458 | 0.823 | 0.314 | 0.59 | 0.842 | 0.667 | 0.643 | 0.854 | 0.372 | 0.394 | 0.763 | 0.175 | 0.324 | 0.407 | 0.729 | 0.186 |
| 0.766 | CCN(CCO)CCCOc1ccc2c(Nc3cc(CC(=O)Nc4cccc(F)c4)[nH]n3)ncnc2c1 [AZD2811] + C[C@@H]1COCCN1C2=NC(=NC(=C2)C3(CC3)[S@](=N)(=O)C)C4=C5C=CNC5=NC=C4 [AZD6738] (first compound max 1 µM, 7x7, partner max 10 µM) | 0.59 | 0.534 | 0.687 | 0.513 | 0.873 | 0.374 | 0.755 | 0.711 | 0.763 | 0.583 | 0.918 | 0.399 | 0.667 | 0.642 | 0.212 | 0.673 | 0.171 | 0.894 | 0.334 |
